What was measured:
[1] = Teicoplanin trough concentration and Bayesian estimation of AUC24/fAUC24 in patients; assay type: in vivo, human
Protocol: The primary PK/PD parameter for this study was the ratio of the estimated 24-h free-drug area under the curve to the MIC (fAUC24/MICEtest). The estimation of fAUC24 was based on total Cmin measured during the maintenance phase of therapy (at least 3 days after treatment initiation). Our institutional dosing protocol recommends a loading dose of 8–10 mg/kg administered three times approximately every 12 h within the first 48 h for patients with normal renal function, followed by a maintenance dose of 6 mg/kg once daily from Day 3. This loading regimen is intended to rapidly achieve therapeutic concentrations, allowing Cmin values measured during the maintenance phase to serve as a reliable surrogate for drug exposure. Teicoplanin doses were routinely proposed by a pharmacist using therapeutic drug monitoring (TDM) with a target Cmin for teicoplanin set at 15–30 mg/L in line with guideline recommendations,[22] though actual dosing was determined at the discretion of the attending physician.
The estimation of fAUC24 involved a multi-step process. First, the total drug AUC over a 24-h interval during the maintenance phase (AUC24) was calculated for each patient. This was based on individual total clearance (CLtotal) estimated from the observed Cmin through Bayesian analysis. This analysis employed a previously developed population PK (PopPK) model for Japanese patients constructed by Nakayama et al.[23] This PopPK model was based on data from 120 Japanese adult inpatients with MRSA infections and incorporates creatinine clearance and body weight as covariates, making it applicable to our study population. […] Based on the estimated CLtotal for each patient, the AUC24 was calculated as AUC24 (mg·h/L) = daily maintenance dose (mg)/CLtotal (L/h).[13],[24] Second, to account for the impact of hypoalbuminaemia, a patient-specific unbound fraction (fu) was estimated based on a validated model developed specifically for teicoplanin in a Japanese patient population by Yano et al.[25] The model predicts the fu using the patient’s ALB concentration with the following formula: […]
where ALB is expressed in g/dL.
Finally, the free AUC24 (fAUC24) was estimated by multiplying the total AUC24 by fu. The resulting fAUC24/MICEtest ratio was used for all subsequent PK/PD analyses.
PK parameters for each patient were determined using the TDM software, BMs-Pod (ver 8.06, https://bmspod.web.fc2.com/).[26],[27]

[2] = tested on: GSEF bacteraemia; test: Clinical outcomes of teicoplanin-treated GSEF bacteraemia (retrospective cohort); assay type: in vivo, human; conditions: for Treatment failure: 30-day all-cause mortality or microbiological failure
Protocol: We conducted a retrospective, single-centre, observational cohort study at The University of Tokyo Hospital between 1 April 2009 and 30 May 2023. The University of Tokyo’s ethics review board approved the study protocol (approval no. 2023138NI) and waived the requirement for written informed consent. The study was conducted in accordance with the ethical standards of the 1964 Declaration of Helsinki and its subsequent amendments. Patients with at least one GSEF-positive blood culture who received teicoplanin during the study period were deemed eligible. The exclusion criteria were as follows: lack of storage of microbiological samples, lack of teicoplanin trough concentration (Cmin), age under 18 years, renal replacement therapy or initiation of teicoplanin treatment more than 72 h after infection. GSEF bacteraemia was defined as one or more blood cultures positive for E. faecium resistant to ampicillin, and susceptible to teicoplanin and vancomycin, accompanied by signs or symptoms of infection consistent with suspected infection sites, as established in previous studies.[9],[15],[16] Polymicrobial infections were included in the analysis. For patients with a history of multiple treatments for GSEF bacteraemia, only the first treatment was considered.
The primary outcome, treatment failure, was defined as a composite of (i) 30-day all-cause mortality or (ii) microbiological failure, defined as persistent bacteraemia (a positive follow-up blood culture obtained >72 h after initiation of appropriate therapy) in patients with at least one follow-up blood culture).[28],[29] In patients without follow-up blood cultures, microbiological failure was not assessed, and treatment failure was determined solely based on 30-day all-cause mortality. […] Secondary outcomes included 90-day all-cause mortality (death within 90 days of the first positive GSEF blood culture), in-hospital mortality (death occurring during hospitalization), relapse (recurrence of GSEF bacteraemia after negative blood cultures following GSEF treatment) and readmission within 90 days of the first positive GSEF blood culture. Relapse was defined as recurrence of GSEF bacteraemia after documented microbiological clearance, confirmed by at least one negative follow-up blood culture. All clinical outcomes and PK parameter estimation (including AUC calculation) were conducted by an infectious disease pharmacist with access to treatment details and patient clinical courses. MIC measurements were performed independently by separate investigators and were integrated only after clinical outcome evaluation was completed. Safety outcomes included (i) incidence of AKI, diagnosed according to the KDIGO criteria (defined as 1.5× increase in sCr from baseline within 7 days or ≥0.3 mg/dL increase within 48 h of baseline following teicoplanin initiation)[30]; (ii) incidence of liver injury, defined as AST ≥ 90 U/L or ALT ≥ 126 U/L (≥3 times the upper limit during teicoplanin treatment)[31]; and (iii) other adverse events associated with teicoplanin use for GSEF bacteraemia.[15]
Continuous variables, expressed as medians with IQRs, were compared between the treatment success and treatment failure groups using the Mann–Whitney U-test. Categorical variables were compared between the two groups using the χ² test or Fisher’s exact test, as appropriate. To identify predictors of treatment failure, several steps were taken for the logistic regression analysis. First, classification and regression tree (CART) analysis was used to identify the optimal cut-off value for the fAUC24/MICEtest associated with treatment failure, according to the previous vancomycin PK/PD study.[32] This created a dichotomous variable for the PK/PD parameter. Next, a multivariable logistic regression model was constructed to assess the independent effect of the fAUC24/MICEtest on treatment failure. […]

[3] = cited from earlier work
Description: The PK/PD parameter most commonly associated with the clinical efficacy of teicoplanin against MRSA is the ratio of the AUC to the MIC, referred to as AUC/MIC.[10],[11] The target AUC/MIC ratio for teicoplanin against MRSA is approximately 600–900, and achieving this target is known to improve therapeutic outcomes.[12],[13] Furthermore, teicoplanin is a highly protein-bound drug (approximately 90%), and it is the unbound (free) fraction that exerts antimicrobial activity. In critically ill patients, conditions such as hypoalbuminaemia can alter protein binding, potentially affecting the free d ...

[4] = tested on: glycopeptide-susceptible Enterococcus faecium (GSEF); test: Teicoplanin MIC by automated broth microdilution (MicroScan WalkAway-96 Plus); assay type: cell-based; conditions: all isolates; measurement range 2, 4, 8, 16 mg/L
Protocol: Blood culture specimens were processed using the BACTEC FX system (Becton Dickinson Microbiology Systems, Sparks, MD, USA). Species identification of bacterial isolates recovered from blood cultures was performed using the MALDI Biotyper 1.0 (Bruker Daltonics, Bremen, Germany). Antimicrobial susceptibilities to ampicillin and teicoplanin were tested using the MicroScan WalkAway system (Beckman Coulter Japan, Tokyo, Japan) and interpreted according to the Clinical and Laboratory Standards Institute (M100-S26) breakpoints.[21] Polymicrobial bacteraemia was defined as cases where one or more microorganisms, in addition to E. faecium, were isolated from the same blood culture and were not classified as contaminants according to the CDC criteria.[16]
For this study, teicoplanin MIC determinations were performed on archived isolates using a commercial automated broth microdilution method with the MicroScan WalkAway-96 Plus system (MICWalkAway) (Beckman Coulter) and gradient diffusion method (MICEtest) (Etest, bioMérieux) following the manufacturer’s instructions. […] In cases where disagreement occurred among all three operators, the MIC was retested and determined by the representative operator, taking the initial results into consideration.

[5] = tested on: glycopeptide-susceptible Enterococcus faecium (GSEF); test: Teicoplanin MIC by gradient diffusion method (Etest) on archived blood isolates; assay type: cell-based; conditions: for MICEtest: median (IQR), Etest
Protocol: For this study, teicoplanin MIC determinations were performed on archived isolates using a commercial automated broth microdilution method with the MicroScan WalkAway-96 Plus system (MICWalkAway) (Beckman Coulter) and gradient diffusion method (MICEtest) (Etest, bioMérieux) following the manufacturer’s instructions. Due to a change in the MIC measurement range during the study period, all isolates were remeasured using the MicroScan WalkAway-96 Plus system for consistency. The MICWalkAway measurement range was 2, 4, 8, and 16 mg/L. The MICEtest results were reviewed and confirmed independently by three clinical microbiologists who were blinded to the clinical outcomes of the patients from whom the isolates were obtained. In cases where disagreement occurred among all three operators, the MIC was retested and determined by the representative operator, taking the initial results into consideration.

[6] = in vivo; cited from earlier work
Protocol: The estimation of fAUC24 involved a multi-step process. First, the total drug AUC over a 24-h interval during the maintenance phase (AUC24) was calculated for each patient. This was based on individual total clearance (CLtotal) estimated from the observed Cmin through Bayesian analysis. This analysis employed a previously developed population PK (PopPK) model for Japanese patients constructed by Nakayama et al.[23] This PopPK model was based on data from 120 Japanese adult inpatients with MRSA infections and incorporates creatinine clearance and body weight as covariates, making it applicable ...

[7] = tested on: GSEF bacteraemia; conditions: cited from earlier work

Substance: teicoplanin
- Cmin ([1]; human, in vivo): 18.3 (15.0–23.1) mg/L
- inter-individual variability (CV%) for clearance ([1]; human, in vivo): 39.2%
- inter-individual variability (CV%) for distribution rate parameter K12 ([1]; human, in vivo): 0.1%
- inter-individual variability (CV%) for distribution rate parameter α ([1]; human, in vivo): 4.7%
- inter-individual variability (CV%) for steady-state volume of distribution ([1]; human, in vivo): 43.8%
- median Cmin in both groups ([1]; human, in vivo): approximately 18 mg/L
- Cmin ([1]; total trough concentration, maintenance phase, treatment failure group (n = 18), median (IQR)): 18.4 (9.70–23.1) mg/L
- overall 30-day mortality rate ([2]; 6/76): 7.9%
- treatment failure, overall ([2]; 18 of 76 patients): 23.7%
- 30-day mortality ([2]; fAUC24/MICEtest < 462 (n = 49)): 6 (12.2) n (%)
- 90-day mortality ([2]; fAUC24/MICEtest < 462 (n = 49)): 17 (34.7) n (%)
- In-hospital mortality ([2]; fAUC24/MICEtest < 462 (n = 49)): 12 (24.5) n (%)
- Readmission within 90 days after bacteraemia ([2]; fAUC24/MICEtest < 462 (n = 49)): 22 (44.9) n (%)
- Relapse ([2]; fAUC24/MICEtest < 462 (n = 49)): 7 (14.3) n (%)
- Treatment failure ([2]; fAUC24/MICEtest < 462 (n = 49)): 17 (34.7) n (%)
- 30-day mortality ([2]; fAUC24/MICEtest ≥ 462 (n = 27)): 0 (0.0) n (%)
- 90-day mortality ([2]; fAUC24/MICEtest ≥ 462 (n = 27)): 3 (11.1) n (%)
- In-hospital mortality ([2]; fAUC24/MICEtest ≥ 462 (n = 27)): 2 (7.4) n (%)
- Readmission within 90 days after bacteraemia ([2]; fAUC24/MICEtest ≥ 462 (n = 27)): 8 (29.6) n (%)
- Relapse ([2]; fAUC24/MICEtest ≥ 462 (n = 27)): 3 (11.1) n (%)
- Treatment failure ([2]; fAUC24/MICEtest ≥ 462 (n = 27)): 1 (3.7) n (%)
- Odds ratio (95% CI) of treatment failure for fAUC24/MICEtest ≥ 462, multivariable ([2]; logistic regression adjusted for CCI, immunosuppressed state, Pitt bacteraemia score): 0.099 (0.005–0.562)
- Odds ratio (95% CI) of treatment failure for fAUC24/MICEtest ≥ 462, univariable ([2]; logistic regression, univariable): 0.072 (0.004–0.389)
- incidence of treatment failure ([2]; patients with fAUC24/MICEtest < 462): 34.7%
- incidence of treatment failure ([2]; patients with fAUC24/MICEtest ≥ 462): 3.7%
- protein bound [3]: approximately 90%
- MICWalkAway [4]: ≤ 2 mg/L
- proportion of isolates with MIC ≤ 0.5 mg/L ([5]; isolates of the cohort): 84.2%
- MICEtest ([5]; treatment failure group (n = 18)): 0.50 (0.35–0.50) mg/L
- MICEtest ([5]; treatment success group (n = 58)): 0.25 (0.13–0.50) mg/L
- inter-individual variability (CV%) for clearance (CL) [6]: 22.1%
- inter-individual variability (CV%) for volume of distribution (V) [6]: 26.7%
- residual variability [6]: 15.6%
- effectiveness versus vancomycin ([7]; GSEF bacteraemia treatment): non-inferior to vancomycin
- incidence of acute kidney injury (AKI) versus vancomycin ([7]; in vivo): significantly lower incidence of acute kidney injury (AKI)
- treatment success ratio ([7]; patients with GSEF bacteraemia): 64.9%

Source: paper PMC12368495, “Pharmacokinetic/pharmacodynamic parameters of teicoplanin for predicting clinical outcome of glycopeptide-susceptible Enterococcus faecium bacteraemia” (JAC-Antimicrobial Resistance, 2025)
